Test results taken from US9518015B2, “EP1 receptor ligands” (LABORATORIOS DEL DR. ESTEVE, S.A., priority 2011, dated 2016).

Target: T1, human EP1 receptor (Homo sapiens, UniProt P34995)
T1 sequence (P34995 1-402): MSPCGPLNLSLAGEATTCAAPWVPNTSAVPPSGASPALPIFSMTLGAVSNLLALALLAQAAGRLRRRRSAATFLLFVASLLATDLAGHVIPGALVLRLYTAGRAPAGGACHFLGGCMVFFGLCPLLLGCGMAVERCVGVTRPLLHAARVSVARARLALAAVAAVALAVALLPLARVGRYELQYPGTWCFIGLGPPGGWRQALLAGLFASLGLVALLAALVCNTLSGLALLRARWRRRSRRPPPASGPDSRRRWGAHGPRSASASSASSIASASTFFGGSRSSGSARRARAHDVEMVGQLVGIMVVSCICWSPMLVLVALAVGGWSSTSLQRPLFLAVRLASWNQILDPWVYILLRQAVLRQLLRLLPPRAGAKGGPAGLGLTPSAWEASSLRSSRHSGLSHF
Experiment: Test 2: Measurement of IP1 responses by HTRF, suspended HEK-293 cells stably expressing human EP1 receptors, PGE2 30 nM
Format: cell-based
Design: expressed in transfected cells
Conditions: for inhibition at 10 µM: HEK293, at 10 μM, read-out: Results of Test 2 (Functional assay), % inh
Procedure: Test 2: Measurement of IP1 responses by Homogeneous Time Resolved Fluorescence
IP1 measurements on HEK-293 cells that stably expressed human EP1 receptors were performed by using a system based on Homogeneous Time Resolved Fluorescense (HTRF) (Gabriel et al., 2003). This technology allows the direct measurement of IP1 in living cells. The principle of this assay is based on competition between IP1 produced by cells and IP1-d2 conjugate for the binding with monoclonal anti-IP1-cryptate conjugate. The HTRF IP1 kit from CisBio was used according to the manufacturer's directions. The experimental procedure was performed as stated below.
Suspended cells (30,000 cells per well) were added to 96-well culture plates in 40 μl of stimulation buffer (supplied by the kit). Compounds were then added in 20 μl of stimulation buffer and incubated at 37° C. for 15 minutes followed by 10 μl of PGE2 to a final concentration of […]. After 90 minutes at 37° C., the reaction was stopped lysing the cells with a mixture of 15 μl of cryptate and 15 μl of IP1-d2 prepared in the lysis buffer supplied by the manufacturer. Plates were incubated for an additional hour at room temperature and read at 665 nm/620 nm using an UltraEvolution Plate reader (Tecan).
Antagonist percentage inhibition was calculated relating compounds activity to the 0% inhibition of the wells incubated with 10 nM PGE2 alone and 100% inhibition of the wells incubated with 10 nM PGE2 plus 1 μM of the reference antagonist.

Compound	inhibition at 10 µM [%]	Results of Test 2 (Functional assay), % inh (at 10 μM)
O=C(O)c1cccc2c1ccn2Cc1cc(F)ccc1OCc1ccc(F)cc1C(F)(F)F [Example 18, 1-(5-fluoro-2-((4-fluoro-2-(trifluoromethyl)benzyl)oxy)benzyl)-1H-indole-4-carboxylic acid]	> 75	–
CC(Oc1ccc(Cl)cc1Cn1ccc2c(C(=O)O)cccc21)c1ccc(F)cc1F (stereo not drawn) [Example 23]	> 75	–
O=C(O)c1cccc2c1ccn2Cc1cc(Cl)cc(Br)c1OCc1ccc(Br)cc1F [Example 28, 1-(3-bromo-2-((4-bromo-2-fluorobenzyl)oxy)-5-chlorobenzyl)-1H-indole-4-carboxylic acid]	45 to 75	–
O=C(O)c1cccc2c1ccn2Cc1cc(F)ccc1OCc1ccc(F)cc1 [Example 35, 1-(5-fluoro-2-((4-fluorobenzyl)oxy)benzyl)-1H-indole-4-carboxylic acid]	> 75	–
O=C(O)c1cccc2c1ccn2Cc1cc(F)ccc1OCc1cc(F)c(F)cc1Cl [Example 36, 1-(2-((2-chloro-4,5-difluorobenzyl)oxy)-5-fluorobenzyl)-1H-indole-4-carboxylic acid]	45 to 75	–
O=C(O)c1cccc2c1ccn2Cc1cc(C(F)(F)F)ccc1OCc1c(F)cccc1F [Example 37, 1-(2-((2,6-difluorobenzyl)oxy)-5-(trifluoromethyl)benzyl)-1H-indole-4-carboxylic acid]	> 75	–
O=C(O)c1cccc2c1ccn2Cc1cc(F)ccc1OCc1cc(F)ccc1Cl [Example 38, 1-(2-((2-chloro-5-fluorobenzyl)oxy)-5-fluorobenzyl)-1H-indole-4-carboxylic acid]	> 75	–
O=C(O)c1cccc2c1ccn2Cc1cc(C(F)(F)F)ccc1OCc1cc(F)ccc1F [Example 39, 1-(2-((2,5-difluorobenzyl)oxy)-5-(trifluoromethyl)benzyl)-1H-indole-4-carboxylic acid]	> 75	–
O=C(O)c1cccc2c1ccn2Cc1cc(Cl)cc(Br)c1OCc1c(F)cccc1F [Example 40, 1-(3-bromo-5-chloro-2-((2,6-difluorobenzyl)oxy)benzyl)-1H-indole-4-carboxylic acid]	45 to 75	–
CC(c1cc(Cl)ccc1OCc1ccc(Cl)cc1F)n1ccc2c(C(=O)O)cccc21 (stereo not drawn) [Example 42, 1-(1-(5-chloro-2-((4-chloro-2-fluorobenzyl)oxy)phenyl)ethyl)-1H-indole-4-carboxylic acid]	> 75	–
O=C(O)c1cccc2c1ccn2Cc1cc(C(F)(F)F)ccc1OCc1ccccc1F [Example 52, 1-(2-((2-fluorobenzyl)oxy)-5-(trifluoromethyl)benzyl)-1H-indole-4-carboxylic acid]	> 75	–
O=C(O)c1cccc2c1ccn2Cc1cc(F)ccc1OCc1ccc(F)cc1F [Example 53, 1-(2-((2,4-difluorobenzyl)oxy)-5-fluorobenzyl)-1H-indole-4-carboxylic acid]	> 75	–
O=C(O)c1cccc2c1ccn2Cc1cc(Cl)cc(Cl)c1OCc1ccc(Cl)cc1F [Example 59, 1-(3,5-dichloro-2-((4-chloro-2-fluorobenzyl)oxy)benzyl)-1H-indole-4-carboxylic acid]	45 to 75	–
O=C(O)c1cccc2c1ccn2Cc1ncccc1OCc1ccc(Cl)cc1F [Example 61, 1-((3-((4-chloro-2-fluorobenzyl)oxy)pyridin-2-yl)methyl)-1H-indole-4-carboxylic acid]	45 to 75	–
O=C(O)c1cccc2c1ccn2Cc1cc(Cl)ccc1CCc1ccc(Cl)cc1F [Example 63, 1-(5-chloro-2-(4-chloro-2-fluorophenethyl)benzyl)-1H-indole-4-carboxylic acid]	> 75	–
O=C(O)c1ccc2c(ccn2Cc2cc(F)ccc2OCc2cc(F)c(F)cc2F)c1 [Example 65]	> 75	–
O=C(O)c1ccc2c(ccn2Cc2cc(F)ccc2OCc2ccc(F)cc2Cl)c1 [Example 66, 1-(2-((2-chloro-4-fluorobenzyl)oxy)-5-fluorobenzyl)-1H-indole-5-carboxylic acid]	> 75	–
O=C(O)c1ccc2c(ccn2Cc2cc(Cl)ccc2OCc2ccc(F)cc2C(F)(F)F)c1 [Example 67]	45 to 75	–
O=C(O)c1ccc2c(ccn2Cc2cc(Br)ccc2OCc2ccc(F)cc2Cl)c1 [Example 70, 1-(5-bromo-2-((2-chloro-4-fluorobenzyl)oxy)benzyl)-1H-indole-5-carboxylic acid]	> 75	–
O=C(O)c1ccc2c(ccn2Cc2cc(F)ccc2OCc2cc(F)c(F)c(F)c2)c1 [Example 71, 1-(5-fluoro-2-((3,4,5-trifluorobenzyl)oxy)benzyl)-1H-indole-5-carboxylic acid]	45 to 75	–
O=C(O)c1ccc2c(ccn2Cc2cc(F)ccc2OCc2cc(F)c(F)cc2Cl)c1 [Example 72, 1-(2-((2-chloro-4,5-difluorobenzyl)oxy)-5-fluorobenzyl)-1H-indole-5-carboxylic acid]	> 75	–
O=C(O)c1ccc2c(ccn2Cc2cc(F)ccc2OCc2cc(F)ccc2Cl)c1 [Example 73, 1-(2-((2-chloro-5-fluorobenzyl)oxy)-5-fluorobenzyl)-1H-indole-5-carboxylic acid]	45 to 75	–
O=C(O)c1ccc2c(ccn2Cc2cc(Br)ccc2OCc2ccc(F)cc2F)c1 [Example 74, 1-(5-bromo-2-((2,4-difluorobenzyl)oxy)benzyl)-1H-indole-5-carboxylic acid]	45 to 75	–
O=C(O)c1ccc2c(ccn2Cc2cc(Cl)ccc2OCc2ccc(Cl)cc2F)c1 [Example 76, 1-(5-chloro-2-((4-chloro-2-fluorobenzyl)oxy)benzyl)-1H-indole-5-carboxylic acid]	45 to 75	–
O=C(O)c1ccc2c(ccn2Cc2cc(Cl)ccc2OCc2ccc(F)cc2F)c1 [Example 78]	> 75	–

The next lines start with the values.

inhibition at 10 µM [%]	Results of Test 2 (Functional assay), % inh (at 10 μM)	Compound
> 75	–	O=C(O)c1cccc2c1ccn2Cc1cc(Cl)ccc1OCc1cc(F)cc(F)c1 [Example 41, 1-(5-chloro-2-((3,5-difluorobenzyl)oxy)benzyl)-1H-indole-4-carboxylic acid]
> 75	–	O=C(O)c1cccc2c1ccn2Cc1cc(Cl)ccc1OCc1ccc(F)cc1F [Example 43, 1-(5-chloro-2-((2,4-difluorobenzyl)oxy)benzyl)-1H-indole-4-carboxylic acid]
> 75	–	O=C(O)c1cccc2c1ccn2Cc1cc(Cl)ccc1OCc1ccc(Br)cc1F [Example 46, 1-(2-((4-bromo-2-fluorobenzyl)oxy)-5-chlorobenzyl)-1H-indole-4-carboxylic acid]
> 75	–	O=C(O)c1cccc2c1ccn2Cc1cc(Cl)ccc1OCc1c(F)cc(Br)cc1F [Example 58, 1-(2-((4-bromo-2,6-difluorobenzyl)oxy)-5-chlorobenzyl)-1H-indole-4-carboxylic acid]
> 75	–	O=C(O)c1cccc2c1ccn2Cc1cc(Br)ccc1OCc1c(F)cc(Cl)cc1F [Example 60, 1-(5-bromo-2-((4-chloro-2,6-difluorobenzyl)oxy)benzyl)-1H-indole-4-carboxylic acid]
–	$ (% inh > 75)	O=C(O)CCc1cccc2c1ccn2Cc1cc(Cl)ccc1OCc1ccc(Cl)cc1F [Example 62, 3-(1-(5-chloro-2-((4-chloro-2-fluorobenzyl)oxy)benzyl)-1H-indol-4-yl)propanoic acid]
> 75	–	O=C(O)c1ccc2c(ccn2Cc2cc(Cl)ccc2OCC2CC2)c1 [Example 64, 1-(5-chloro-2-(cyclopropylmethoxy)benzyl)-1H-indole-5-carboxylic acid]
> 75	–	O=C(O)/C=C/c1cccc2c1ccn2Cc1cc(C(F)(F)F)ccc1OCc1ccccc1 [Example 79, (E)-3-(1-(2-(benzyloxy)-5-(trifluoromethyl)benzyl)-1H-indol-4-yl)acrylic acid]
> 75	–	O=C(O)/C=C/c1cccc2c1ccn2Cc1cc(Br)ccc1OCC1CC1 [Example 80, (E)-3-(1-(5-bromo-2-(cyclopropylmethoxy)benzyl)-1H-indol-4-yl)acrylic acid]
> 75	–	O=C(O)/C=C/c1cccc2c1ccn2Cc1cc(Cl)ccc1OCC1CC1 [Example 81, (E)-3-(1-(5-chloro-2-(cyclopropylmethoxy)benzyl)-1H-indol-4-yl)acrylic acid]
> 75	–	O=C(O)/C=C/c1cccc2c1ccn2Cc1cc(Cl)ccc1OCc1ccc(F)cc1F [Example 82, (E)-3-(1-(5-chloro-2-((2,4-difluorobenzyl)oxy)benzyl)-1H-indol-4-yl)acrylic acid]
